Reference: ChEMBL document CHEMBL5230155, “Recent contributions of quinolines to antimalarial and anticancer drug discovery research” (Eur J Med Chem, 2021)
Values after ≈ are worked out from the molar mass of the structure shown.

Columns and labels:
MGC-803 = assay: Antiproliferative activity against human MGC-803 cells
HCT-116 = assay: Cytotoxicity against human HCT-116 cells; format: functional, cell-based
RT-112 = assay: Antiproliferative activity against human RT-112 cells; format: functional, cell-based
SNU-423 = assay: Antiproliferative activity against human SNU-423 cells; format: functional, cell-based
BEL-7404 tumor cell line = assay: Antiproliferative activity against human BEL-7404 cells; format: functional, cell-based
MDA-MB-453 = assay: Antiproliferative activity against human MDA-MB-453 cells; format: functional, cell-based
HepG2 = assay: Cytotoxicity against human HepG2 cells; format: functional, cell-based
SK-OV-3 = assay: Antiproliferative activity against human SK-OV-3 cells; format: functional, cell-based
PC-3 [1] = assay: Antiproliferative activity against human PC-3 cells; format: functional, cell-based
NCI-H460 = assay: Antiproliferative activity against human NCI-H460 cells; format: functional, cell-based
HeLa = assay: Antitumor activity against human HeLa cells xenografted in mouse assessed as reduction in tumor weight at 20 mg/kg/day, ip for 3 weeks; format: functional; design: scale not given: the % may be the effect or the level left
[2] = Binding affinity to human nRNP
Tubulin = assay: Inhibition of tubulin polymerization (unknown origin); format: protein-complex assay, Homo sapiens
PC-3 [3] = assay: Antitumor activity against human PC-3 cells xenografted in nude mouse assessed as cell growth inhibition at 100 mg/kg/day, ig administered for 21 days; format: functional; design: scale not given: the % may be the effect or the level left; details: time 21 day
LNCaP C4-2B = assay: Antiproliferative activity against human LNCaP C4-2B cells; format: functional, cell-based
PC-3 [4] = assay: Antitumor activity against human PC-3 cells xenografted in nude mouse assessed as cell growth inhibition at 50 mg/kg/day, ig administered for 21 days; format: functional; design: scale not given: the % may be the effect or the level left; details: time 21 day
DU-145 = assay: Antiproliferative activity against human DU-145 cells; format: functional, cell-based
CWR22R = assay: Antiproliferative activity against human 22Rv1 cells; format: functional, cell-based
[5] = Cytotoxicity against human MRC5 cells; format: toxicity, cell-based
[6] = Cytotoxicity against human L02 cells; format: toxicity, cell-based
SMMC-7721 = assay: Cytotoxicity against human SMMC-7721 cells; format: functional, cell-based
Huh-7 = assay: Cytotoxicity against human Huh-7 cells; format: functional, cell-based
KG-1 = assay: Cytotoxicity against human KG-1 cells; format: functional, cell-based
U-937 = assay: Cytotoxicity against human U-937 cells; format: functional, cell-based
MDA-MB-231 = assay: Cytotoxicity against human MDA-MB-231 cells; format: functional, cell-based
Raji = assay: Cytotoxicity against human Raji cells; format: functional, cell-based
UMUC3 = assay: Antiproliferative activity against human UMUC3 cells; format: functional, cell-based
RT-4 = assay: Antiproliferative activity against human RT-4 cells; format: functional, cell-based
T-24 = assay: Antiproliferative activity against human T24 cells; format: functional, cell-based
MCF7 = assay: Antiproliferative activity against human MCF7 cells; format: functional, cell-based; details: Homo sapiens, MCF7
[7] = target: Prostaglandin G/H synthase 2 (Homo sapiens, UniProt P35354)
Prostaglandin G/H synthase 2, sequence (P35354 whole entry): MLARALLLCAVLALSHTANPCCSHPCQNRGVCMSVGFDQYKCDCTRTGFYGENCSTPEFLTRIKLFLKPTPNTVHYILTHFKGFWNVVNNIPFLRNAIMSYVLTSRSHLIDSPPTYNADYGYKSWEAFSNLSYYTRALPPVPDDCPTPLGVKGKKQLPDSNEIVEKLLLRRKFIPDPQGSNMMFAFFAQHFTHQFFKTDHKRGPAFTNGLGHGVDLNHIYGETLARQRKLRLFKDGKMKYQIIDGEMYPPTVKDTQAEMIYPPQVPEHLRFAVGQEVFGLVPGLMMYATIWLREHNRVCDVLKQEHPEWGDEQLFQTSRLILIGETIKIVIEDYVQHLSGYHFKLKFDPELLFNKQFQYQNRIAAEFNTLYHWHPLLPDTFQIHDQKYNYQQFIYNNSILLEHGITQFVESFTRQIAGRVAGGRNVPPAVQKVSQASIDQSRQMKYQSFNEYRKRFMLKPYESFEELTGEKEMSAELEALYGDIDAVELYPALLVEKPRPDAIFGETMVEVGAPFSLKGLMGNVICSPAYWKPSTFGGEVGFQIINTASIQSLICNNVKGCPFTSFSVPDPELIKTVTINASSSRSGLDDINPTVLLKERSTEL
Description: Inhibition of COX-2 (unknown origin)

G-361 = assay: Antiproliferative activity against human G-361 cells; format: functional, cell-based; details: read-out: IC50

O=c1[nH]cc(F)c(=O)[nH]1 [FLUOROURACIL]
IC50 (MGC-803): 10400 nM
IC50 (HCT-116): 5.3 µg/mL (≈ 40.7 µM)
IC50 (RT-112): 7400 nM
IC50 (SNU-423): 7400 nM
IC50 (BEL-7404 tumor cell line): 26300 nM
IC50 (MDA-MB-453): 7400 nM
IC50 (HepG2; Homo sapiens, HepG2): 5.3 µg/mL
IC50 (HepG2; hepg2): 26300 nM
IC50 (SK-OV-3): 26300 nM
IC50 (PC-3 [1]): 10400 nM
IC50 (NCI-H460): 26300 nM

COc1ccc(C(=O)/C=C/c2cc(N3CCOCC3)c3cc([N+](=O)[O-])ccc3n2)cc1
Activity (HeLa): 69.3%
Kd [2]: 4600 nM

COc1cc(N(CCSC(=S)N2CCN(CCO)CC2)S(=O)(=O)c2cccc3cccnc23)cc(OC)c1OC
IC50 (Tubulin): 4020 nM
Activity (PC-3 [3]): 61.4%
IC50 (LNCaP C4-2B): 670 nM
Activity (PC-3 [4]): 35.6%
IC50 (PC-3 [1]): 430 nM
IC50 (DU-145): 670 nM
IC50 (CWR22R): 670 nM

COc1ccc(/C=N/NC(=O)c2ccc(Nc3ccnc4ccccc34)cc2)cc1OC
IC50 [5]: 16100 nM
IC50 [6]: 16100 nM
IC50 (HepG2; Homo sapiens, HepG2): 126000 nM
IC50 (SMMC-7721): 6300 nM
IC50 (Huh-7): 6300 nM

O=C(Nc1ccc(NC(=O)c2ccc(Nc3ccnc4ccccc34)cc2)cc1)OCc1ccccc1
IC50 (KG-1): 300 nM
IC50 (U-937): 300 nM
IC50 (MDA-MB-231): 300 nM
IC50 (PC-3 [1]): 300 nM
IC50 (Raji): 300 nM

COc1cc(N(CCCSC(=S)N2CCN(C(C)=O)CC2)S(=O)(=O)c2cccc3cccnc23)cc(OC)c1OC
IC50 (RT-112): 700 nM
IC50 (SNU-423): 700 nM
IC50 (UMUC3): 900 nM
IC50 (RT-4): 1900 nM
IC50 (MDA-MB-453): 700 nM
IC50 (Tubulin): 2900 nM
IC50 (T-24): 2600 nM

COc1ccc2ccc(F)c(CC(=O)N/N=C/c3cccc(C(F)(F)F)c3)c2n1
IC50 (MCF7): 2070 nM
IC50 [7]: 130 nM
IC50 (G-361): 2070 nM
